BindingDB's records for doi:10.1021/jm00039a025 (Wellcome Research Laboratories, 1994)

Assay: Ability to inhibit glycinamide ribonucleotide transformylase (GAR-Tfase) in vitro, using hog liver with (6R)-10-formyl-FH4 as cofactor

| SMILES | IC50 [nM] |
| --- | --- |
| Nc1nc(N)c(CCCNc2cnc(C(=O)N[C@H](CCC(=O)O)C(=O)O)s2)c(=O)[nH]1 [(S)-2-({5-[3-(2,4-Diamino-6-oxo-1,6-dihydro-pyrimidin-5-yl)-propylamino]-thiazole-2-carbonyl}-amino)-pentanedioic acid] | 140 |
| Nc1nc(N)c(CCCNc2ccc(C(=O)N[C@H](CCC(=O)O)C(=O)O)s2)c(=O)[nH]1 [(S)-2-({5-[3-(2,4-Diamino-6-oxo-1,6-dihydro-pyrimidin-5-yl)-propylamino]-thiophene-2-carbonyl}-amino)-pentanedioic acid] | 2060 |
